One test concerns Th cell clones. Nature of the test: Recognition of CDCA1 protein-loaded autologous DCs by Th clones (natural processing), IFN-gamma ELISPOT. Type of test: cell-based, human. The following applies: DCs loaded with recombinant CDCA1 protein 50 micro g/ml. From the text: The 6His-tagged recombinant whole CDCA1 proteins and truncated CDCA1 proteins that lack both CDCA1-derived Th epitopes recognized by CDCA1 (55-78) and CDCA1 (39-64)-specific Th cells were expressed by E. coli BL21 strains with a pET28a vector (Novagen) that has respective cDNA fragments. The truncated CDCA1 protein was used as control protein. Each recombinant protein was purified using a HisTrap FF column (GE Healthcare) according to the manufacturer's instruction. The purity of the proteins was verified by SDS-PAGE.
The immune response of Th cells to APCs pulsed with peptides and proteins were assessed by IFN-gamma ELISPOT assays (Human IFN-gamma ELISPOT kit, BD Biosciences) as described previously (Tomita Y et al. Cancer Sci.; 102: 697-705.). Briefly, the frequency of peptide-specific CD4^+ T cells producing interferon (IFN)-gamma per 3×10^4 bulk CD4^+ T cells upon stimulation with peptide-pulsed PBMCs (3×10^4/well), or 1×10^4 bulk CD4^+ T cells upon stimulation with peptide-pulsed HLA-DR-expressing L-cells (5×10^4/well) was analyzed. The frequency of cells producing interferon (IFN)-gamma per 1×10^5 CTLs upon stimulation with peptide-pulsed T2 cells (2×10^4/well) was also analyzed. Alternatively, 5×10^3 protein-loaded DCs were co-cultured with 2×10^4 CD4^+ T cell clones/well. […]

The subject of test [1] is CDCA1-A24 (56-64)-specific CTLs. Nature of the test: In vitro cross-presentation assay with unfixed or fixed DCs, intracellular IFN-gamma. Type of test: cell-based, human. The following applies: cross presented by unfixed DCs (DC+LP); peptide 16 micro M, 3 h pulse. Here is the method: An HLA-A24^+ donor (HD2)-derived DCs were kept alive or fixed for 3 min in 0.1% glutaraldehyde (Sigma-Aldrich), pulsed with peptides (16 micro M) for 3 h, and washed 3 times. OK432 (0.1 KE/mL, Chugai Pharmaceutical Co, Tokyo, Japan) was added to induce the maturation of DCs during and after the peptide pulse. CDCA1-A24 (56-64)-reactive bulk CTLs were added at a 2:1 ratio for 6 h in medium containing 10 micro g/mL brefeldin A (Sigma-Aldrich). The brefeldin A was added to inhibit protein secretion during the stimulation. IFN-gamma production by the CDCA1-A24 (56-64)-specific CTLs was measured by intracellular labeling. The cells were stained with a FITC-labeled anti-human IFN-gamma mAb (BioLegend) in combination with a PerCP-labeled anti-human CD8 mAb (BioLegend) and a PE-labeled CDCA1-A24 (56-64)-specific tetramer. Data acquisition was performed on a FACSCalibur (BD Biosciences) and data files were analyzed with FlowJo software (Tree Star, Ashland, Oreg.).

For the sequence “NPKPEVLHMIYMRALQIVYGIRLEHF [CDCA1 (39-64)]”, the “Natural processing of the Th cell epitope by DC from CDCA1-protein” value in the test with Th cell clones was “naturally processed”. The “IFN-gamma secreting tetramer+ CD8+ T-cells” value in test [1] was “significant proportion”.

For the origin of these results see US10206989B2, “CDCA1 epitope peptides for Th1 cells and vaccines containing the same” (OncoTherapy Science, Inc., priority 2012, dated 2019).
